Compound	melting point [°C]
CCCCOc1cc2c(Nc3cc(OC)c(Cl)cc3Cl)c(C#N)cnc2cc1OCCOC [Example 24, 6-Butoxy-4-[(2,4-dichloro-5-methoxyphenyl)amino]-7-(2-methoxyethoxy)-3-quinolinecarbonitrile]	166 to 167
COc1cc(Nc2c(C#N)cnc3cc(OCC4CCCCO4)c(OC)cc23)c(Cl)cc1Cl (centres unmarked) [Example 25, 4-[(2,4-Dichloro-5-methoxyphenyl)amino]-6-methoxy-7-(tetrahydro-2H-pyran-2-ylmethoxy)3-quinolinecarbonitrile]	193 to 196
COCCOc1cc2c(Nc3ccc(Sc4nccn4C)c(Cl)c3)c(C#N)cnc2cc1OCCCN(C)C [Example 20, 4-({3-Chloro-4-[(1-methyl-1H-imidazol-2-yl)sulfanyl]phenyl}amino)-7-[3-(dimethylamino)propoxy]-6-(2-methoxyethoxy)-3-quinolinecarbonitrile]	194 to 203
COCCOc1cc2ncc(C#N)c(NC3CCCC3)c2cc1OC [Example 9, 4-Cyclopentylamino-6-methoxy-7-(2-methoxyethoxy)-3-quinolinecarbonitrile]	87 to 90
COc1cc(Nc2c(C#N)cnc3cc(Oc4ccncc4)c(OC)cc23)c(Cl)cc1Cl [Example 12, 4-[(2,4-Dichloro-5-methoxyphenyl)amino]-6-methoxy-7-(pyridin-4-yloxy)-3-quinolinecarbonitrile]	267 to 269
COc1cc(Nc2c(C#N)cnc3cc(OCc4ccccc4)c(OC)cc23)c(Cl)cc1Cl [Example 6, 7-Benzyloxy-4-[(2,4-dichloro-5-methoxyphenyl)amino]-6-methoxy-3-quinolinecarbonitrile]	198 to 200
CC#CCOc1cc2ncc(C#N)c(Nc3cc(OC)c(Cl)cc3Cl)c2cc1OC [Example 1, 7-(2-Butynyloxy)-4-[(2,4-dichloro-5-methoxyphenyl)amino]-6-methoxy-3-quinolinecarbonitrile]	193 to 197
CCCCNc1c(C#N)cnc2cc(OCCOC)c(OC)cc12 [Example 10, 4-Butylamino-6-methoxy-7-(2-methoxyethoxy)-3-quinolinecarbonitrile]	99 to 102
COCCOc1cc2ncc(C#N)c(Nc3cc(OC)c(Cl)cc3Cl)c2cc1OC [Example 14, 4-[(2,4-Dichloro-5-methoxyphenyl)amino]-6-methoxy-7-[2-methoxyethoxy]-3-quinolinecarbonitrile]	210 to 212
COc1cc(Nc2c(C#N)cnc3cc(OCc4cccs4)c(OC)cc23)c(Cl)cc1Cl [Example 5, 4-[(2,4-Dichloro-5-methoxyphenyl)amino]-6-methoxy-7-(2-thienylmethoxy)-3-quinolinecarbonitrile]	194 to 196
COc1cc(Nc2c(C#N)cnc3cc(SCc4ccccc4)c(OC)cc23)c(Cl)cc1Cl [Example 11, 7-Benzylthio-4-[(2,4-dichloro-5-methoxyphenyl)amino]-6-methoxy-3-quinolinecarbonitrile]	123 to 125
CCN1CCN(CCCOc2cc3ncc(C#N)c(Nc4ccc(Sc5nccn5C)c(Cl)c4)c3cc2OCCOC)CC1 [Example 21, 4-({3-Chloro-4-[(1-methyl-1H-imidazol-2-yl)sulfanyl]phenyl}amino)-7-[3-(4-ethyl-1-piperazinyl)propoxy]-6-(2-methoxyethoxy)-3-quinolinecarbonitrile]	188 to 190
COCCOc1cc2c(Nc3cc(OC)c(Cl)cc3Cl)c(C#N)cnc2cc1OCC1CCN(C)CC1 [Example 22, 4-[(2,4-Dichloro-5-methoxyphenyl)amino]-6-[2-methoxyethoxy]-7-[(1-methylpiperidine-4-yl)methoxy]3-quinolinecarbonitrile]	153 to 155
COc1cc(Nc2c(C#N)cnc3cc(OCC(C)(C)CN(C)C)c(OC)cc23)c(Cl)cc1Cl [Example 2, 4-[(2,4-Dichloro-5-methoxyphenyl)amino]-7-(3-dimethylamino-2,2-dimethylpropoxy)-6-methoxy-3-quinolinecarbonitrile]	178 to 180
CCOc1cc2c(Nc3cc(OC)c(Cl)cc3Cl)c(C#N)cnc2cc1OCCOC [Example 23, 4-[(2,4-Dichloro-5-methoxyphenyl)amino]-6-ethoxy-7-(2-methoxyethoxy)3-quinolinecarbonitrile]	215 to 217
COc1cc(Nc2c(C#N)cnc3cc(OCCCN4CCS(=O)(=O)CC4)c(OC)cc23)c(Cl)cc1Cl [Example 3, 4-[(2,4-Dichloro-5-methoxyphenyl)amino]-7-[3-(1,1-dioxido-4-thiomorpholinyl)propoxy]-6-methoxy-3-quinolinecarbonitrile]	118 to 120
COc1cc(Nc2c(C#N)cnc3cc(Sc4ccccc4)c(OC)cc23)c(Cl)cc1Cl [Example 8, 4-[(2,4-Dichloro-5-methoxyphenyl)amino]-6-methoxy-7-phenylsulfanyl-3-quinolinecarbonitrile]	220 to 222
COCCOc1cc2ncc(C#N)c(Nc3cc(OC)c(OC)c(OC)c3)c2cc1OC [Example 17, 6-Methoxy-7-[2-methoxyethoxy]-4-[(3,4,5-trimethoxyphenyl)amino]-3-quinolinecarbonitrile]	188 to 190

More lines, now with the values ahead:

melting point [°C]	Compound
198 to 200	COc1cc2c(Nc3ccc(Sc4nccn4C)c(Cl)c3)c(C#N)cnc2cc1NCCCN(C)C [Example 29, 4-[3-Chloro-4-(1-methyl-1H-imidazol-2-ylsulfanyl)-phenylamino]-7-{[3-(dimethyl)aminopropyl]amino}-6-methoxyquinoline-3-carbonitrile]
179 to 181	COCCOc1cc2ncc(C#N)c(Nc3cc(OC)ccc3Cl)c2cc1OC [Example 38, 4-[(2-Chloro-5-methoxyphenyl)amino]-6-methoxy-7-(2-methoxyethoxy)quinoline-3-carbonitrile]
182 to 183	COCCOc1ccc2c(Nc3cc(OC)c(Cl)cc3Cl)c(C#N)cnc2c1 [Example 33, 4-[(2,4-Dichloro-5-methoxyphenyl)amino]-7-(2-methoxyethoxy)-3-quinolinecarbonitrile]
165 to 167	COc1cc(Nc2c(C#N)cnc3cc(NCCCN(C)C)c(OC)cc23)c(Cl)cc1Cl [Example 54, 4-[(2,4-Dichloro-5-methoxyphenyl)amino]-7-{[3-(dimethylamino)propyl]amino}-6-methoxyquinoline-3-carbonitrile]
182 to 184	COc1cc2c(Nc3ccc(Oc4cccnc4)cc3)c(C#N)cnc2cc1OCC1CCN(C)CC1 [Example 57, 6-Methoxy-7-(1-methyl-piperidin-4-ylmethoxy)-4-{[4-(pyridin-3-yloxy)-phenyl]amino}quinoline-3-carbonitrile]
107 to 109	COCCOc1cc2ncc(C#N)c(Nc3ccc(C)cc3C)c2cc1OC [Example 40, 4-[(2,4-Dimethylphenyl)amino]-6-methoxy-7-(2-methoxyethoxy)quinoline-3-carbonitrile]
143 to 145	COCCOc1cc2ncc(C#N)c(Nc3cc(OC)c(C)cc3C)c2cc1OC [Example 37, 4-[(2,4-Dimethyl-5-methoxyphenyl)amino]-6-methoxy-7-(2-methoxyethoxy)quinoline-3-carbonitrile]
163 to 166	COc1ccc(C)c(Nc2c(C#N)cnc3cc(OCCCC4CCN(C)CC4)c(OC)cc23)c1 [Example 48, 6-Methoxy-4-[(5-methoxy-2-methylphenyl)amino]-7-[3-(1-methylpiperidine-4-yl)propoxy]quinoline-3-carbonitrile]
134 to 138	COc1cc(Nc2c(C#N)cnc3cc(OCC4CCNCC4)c(OC)cc23)c(Cl)cc1Cl [Example 53, 4-[(2,4-Dichloro-5-methoxyphenyl)amino]-6-methoxy-7-(piperidin-4-ylmethoxy)quinoline-3-carbonitrile]
270 to 272	COc1cc2c(Nc3ccc(Sc4nccn4C)c(Cl)c3)c(C#N)cnc2cc1N1CCN(C)CC1 [Example 27, 4-[3-Chloro-4-(1-methyl-1H-imidazol-2-ylsulfanyl)-phenylamino]-6-methoxy-7-(4-methylpiperazin-1-yl)-quinoline-3-carbonitrile]
196 to 201	COc1cc2c(Nc3ccc(Sc4nccn4C)c(Cl)c3)c(C#N)cnc2cc1N(C)CCCN(C)C [Example 30, 4-[3-Chloro-4-(1-methyl-1H-imidazol-2-ylsulfanyl)-phenylamino]-7-{[3-(dimethylamino)propyl]-methylamino}-6-methoxyquinoline-3-carbonitrile]
116 to 117	COc1cc(Nc2c(C#N)cnc3cc(N(C)CCCN(C)C)c(OC)cc23)c(Cl)cc1Cl [Example 55, 4-[(2,4-Dichloro-5-methoxyphenyl)amino]-7-{[3-(dimethylamino)propyl](methyl)amino]-6-methoxyquinoline-3-carbonitrile]
122 to 124	COc1cc(Nc2c(C#N)cnc3cc(NCCCC4CCN(C)CC4)c(OC)cc23)c(Cl)cc1Cl [Example 28, 4-[(2,4-Dichloro-5-methoxyphenyl)amino]-6-methoxy-7-{[3-(1-methylpiperidin-4-yl)propyl]amino}quinoline-3-carbonitrile]
159 to 162	COc1cc2c(Nc3ccc(C)cc3C)c(C#N)cnc2cc1OCCCC1CCN(C)CC1 [Example 49, 4-[(2,4-Dimethylphenyl)amino]-6-methoxy-7-[3(1-methylpiperidine-4-yl)propoxy]quinoline-3-carbonitrile]
158 to 159	COCCOc1cc2ncc(C#N)c(Nc3cc(OC)c(Cl)cc3Cl)c2cc1OCCN1CCOCC1 [Example 26, 4-[(2,4-Dichloro-5-methoxyphenyl)amino]-7-(2-methoxyethoxy)-6-(2-morpholin-4-ylethoxy)3-quinolinecarbonitrile]
192 to 195	CCN1CCC(COc2cc3ncc(C#N)c(Nc4cc(OC)c(Cl)cc4Cl)c3cc2OC)CC1 [Example 51, 4-[(2,4-Dichloro-5-methoxyphenyl)amino]-7-[(1-ethylpiperidine-4-yl)methoxy]-6-methoxyquinoline-3-carbonitrile]
144 to 145	COCCOc1ccc2c(Nc3ccc(Cl)cc3Cl)c(C#N)cnc2c1 [Example 34, 4-[(2,4-Dichlorophenyl)amino]-7-(2-methoxyethoxy)-3-quinolinecarbonitrile]
